Laboratory results reported in patent US11180462B2, “Microbiocidal oxadiazole derivatives” (SYNGENTA PARTICIPATIONS AG, priority 2015, dated 2021).

Key:
[1] = tested on: Puccinia recondita f. Sp. Tritici; assay: Fungicidal activity against Puccinia recondita f. sp. tritici / wheat / leaf disc curative (brown rust); assay type: in vivo; settings: foliar, 24 h, 200 ppm in the applied formulation, wheat leaf segments, curative (applied 1 day after inoculation), compared to untreated control leaf disks, read-out: disease control
Method in brief: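 Scoring is percent disease control relative to untreated segments, made 6 to 8 days after treatment. Wheat (cv. Kanzler) leaf segments received the formulated, water-diluted compound one day post-inoculation with spores, having been kept dark at 19° C and 75% RH, then incubated under 12 h light/12 h dark at the same temperature and humidity.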

[2] = tested on: Puccinia recondita f. Sp. Tritici; assay: Fungicidal activity against Puccinia recondita f. sp. tritici / wheat / leaf disc preventative (brown rust); assay type: in vivo; settings: foliar, 200 ppm in the applied formulation, wheat leaf segments, preventative, compared to untreated control leaf disks, read-out: disease control
Method in brief: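 Percent disease control relative to untreated check segments is scored once disease develops, 7 to 9 days after application. Wheat cv. Kanzler segments receive compound spray (200 ppm in formulation) one day before spore inoculation, then sit at 19° C. and 75% rh under 12 h light/12 h dark.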

Phakopsora Pachyrhizi = assay: Fungicidal activity against Phakopsora pachyrhizi / soybean / leaf disc preventative (Asian soybean rust); assay type: in vivo; settings: foliar, 200 ppm in the applied formulation, soybean leaf disks, compared to untreated control leaf disks, read-out: disease control
Method in brief: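 Scored 12 to 14 days post-application as percent control relative to untreated check discs, rust spores were sprayed under the disc one day after compound treatment. Incubation: 20°C, 75% rh, first 24–36 h in darkness, then 12 h daily light; discs kept on water agar.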

[3] = tested on: Glomerella lagenarium (Colletotrichum lagenarium); assay: Fungicidal activity against Glomerella lagenarium (Colletotrichum lagenarium) liquid culture / cucumber / preventative (anthracnose); assay type: cell-based; settings: Colletotrichum orbiculare; 20 ppm in the applied formulation; liquid culture (PDB), growth inhibition measured photometrically after 3 to 4 days; compared to untreated control; read-out: disease control
Method in brief: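 Percent activity against the untreated check was derived from photometric growth measurements made 2 to 7 days after conidia in potato dextrose broth were combined with compound at 20 ppm. Cultures were kept dark at 24 °C and 96% humidity.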

CCC(=O)N(CCO)Cc1ccc(-c2noc(C(F)(F)F)n2)cc1 [Compound 1.591, N-(2-hydroxyethyl)-N-[[4-[5-(trifiuoromethyl)-1,2,4-oxadiazol-3-yl]phenyl]methyl]-propanamide]
≥ 80%: pest or weed control at 200 ppm [1] | pest or weed control at 200 ppm [2] | pest or weed control at 200 ppm (Phakopsora Pachyrhizi) | inhibition of growth at 20 ppm [3]

CCCN(Cc1ccc(-c2noc(C(F)(F)F)n2)cc1)C(=O)C1CC1 [Compound 1.574, N-propyl-N-[[4-[5-(trifluoromethyl)-1,2,4-oxadiazol-3-yl]phenyl]methyl]-cyclopropane-carboxamide]
≥ 80%: pest or weed control at 200 ppm [1] | pest or weed control at 200 ppm [2] | pest or weed control at 200 ppm (Phakopsora Pachyrhizi) | inhibition of growth at 20 ppm [3]

CC1CC1C(=O)N(Cc1ccc(-c2noc(C(F)(F)F)n2)cc1)CC1CC1 (centres unmarked) [Compound 1.223, N-(cyclopropylmethyl)-2-methyl-N-[[4-[5-(trifluoromethyl)-1,2,4-oxadiazol-3-yl]phenyl]methyl]-cyclopropane-carboxamide]
≥ 80%: pest or weed control at 200 ppm [1] | pest or weed control at 200 ppm [2] | pest or weed control at 200 ppm (Phakopsora Pachyrhizi) | inhibition of growth at 20 ppm [3]

C=CCN(Cc1ccc(-c2noc(C(F)(F)F)n2)cc1)C(=O)CCOC [Compound 1.476, N-allyl-3-methoxy-N-[[4-[5-(trifluoromethyl)-1,2,4-oxadiazol-3-yl]phenyl]methyl]-propanamide]
≥ 80%: pest or weed control at 200 ppm [1] | pest or weed control at 200 ppm [2] | pest or weed control at 200 ppm (Phakopsora Pachyrhizi) | inhibition of growth at 20 ppm [3]

CCCN(Cc1ccc(-c2noc(C(F)(F)F)n2)cc1)C(=O)C1(C)COC1 [Compound 1.660, 3-methyl-N-propyl-N-[[4-[5-(trifluoromethyl)-1,2,4-oxadiazol-3-yl]phenyl]methyl]-oxetane-3-carboxamide]
≥ 80%: pest or weed control at 200 ppm [1] | pest or weed control at 200 ppm [2] | pest or weed control at 200 ppm (Phakopsora Pachyrhizi) | inhibition of growth at 20 ppm [3]

CCN(Cc1ccc(-c2noc(C(F)(F)F)n2)cc1)C(=O)C1CC1F (centres unmarked) [Compound 1.511, N-ethyl-2-fluoro-N-[[4-[5-(trifluoromethyl)-1,2,4-oxadiazol-3-yl]phenyl]methyl]-cyclopropane-carboxamide]
≥ 80%: pest or weed control at 200 ppm [1] | pest or weed control at 200 ppm [2] | pest or weed control at 200 ppm (Phakopsora Pachyrhizi) | inhibition of growth at 20 ppm [3]

CCC(C)N(Cc1ccc(-c2noc(C(F)(F)F)n2)cc1)C(C)=O (centres unmarked) [Compound 1.407, N-sec-butyl-N-[[4-[5-(trifluoromethyl)-1,2,4-oxadiazol-3-yl]phenyl]methyl]-acetamide]
≥ 80%: pest or weed control at 200 ppm [1] | pest or weed control at 200 ppm [2] | pest or weed control at 200 ppm (Phakopsora Pachyrhizi) | inhibition of growth at 20 ppm [3]

COCCC(=O)N(Cc1ccc(-c2noc(C(F)(F)F)n2)cc1)OC [Compound 1.31, N,3-dimethoxy-N-[[4-[5-(trifluoromethyl)-1,2,4-oxadiazol-3-yl]phenyl]methyl]-propanamide]
≥ 80%: pest or weed control at 200 ppm [1] | pest or weed control at 200 ppm [2] | pest or weed control at 200 ppm (Phakopsora Pachyrhizi) | inhibition of growth at 20 ppm [3]

C=C(C)C(=O)N(Cc1ccc(-c2noc(C(F)(F)F)n2)cc1)OC [Compound 1.45, N-methoxy-2-methyl-N-[[4-[5-(trifluoromethyl)-1,2,4-oxadiazol-3-yl]phenyl]methyl]-prop-2-enamide]
≥ 80%: pest or weed control at 200 ppm [1] | pest or weed control at 200 ppm [2] | pest or weed control at 200 ppm (Phakopsora Pachyrhizi) | inhibition of growth at 20 ppm [3]

CON(Cc1ccc(-c2noc(C(F)(F)F)n2)cc1)C(=O)CC1CCCC1 [Compound 1.8, 2-cyclopentyl-N-methoxy-N-[[4-[5-(trifluoromethyl)-1,2,4-oxadiazol-3-yl]phenyl]methyl]-acetamide]
≥ 80%: pest or weed control at 200 ppm [1] | pest or weed control at 200 ppm [2] | pest or weed control at 200 ppm (Phakopsora Pachyrhizi) | inhibition of growth at 20 ppm [3]

C#CCN(Cc1ccc(-c2noc(C(F)(F)F)n2)cc1)C(=O)C(=C)C [Compound 1.187, 2-methyl-N-prop-2-ynyl-N-[[4-[5-(trifluoromethyl)-1,2,4-oxadiazol-3-yl]phenyl]methyl]-prop-2-enamide]
≥ 80%: pest or weed control at 200 ppm [1] | pest or weed control at 200 ppm [2] | pest or weed control at 200 ppm (Phakopsora Pachyrhizi) | inhibition of growth at 20 ppm [3]

CCCON(Cc1ccc(-c2noc(C(F)(F)F)n2)cc1)C(=O)C1CCCN1C(C)=O (centres unmarked) [Compound 1.314, 1-acetyl-N-propoxy-N-[[4-[5-(trifluoromethyl)-1,2,4-oxadiazol-3-yl]phenyl]methyl]-pyrrolidine-2-carboxamide]
≥ 80%: pest or weed control at 200 ppm [1] | pest or weed control at 200 ppm [2] | pest or weed control at 200 ppm (Phakopsora Pachyrhizi) | inhibition of growth at 20 ppm [3]

CC1CC1C(=O)N(CCO)Cc1ccc(-c2noc(C(F)(F)F)n2)cc1 (centres unmarked) [Compound 1.717, N-(2-hydroxyethyl)-2-methyl-N-[[4-[5-(trifluoromethyl)-1,2,4-oxadiazol-3-yl]phenyl]methyl]-cyclopropane-carboxamide]
≥ 80%: pest or weed control at 200 ppm [1] | pest or weed control at 200 ppm [2] | pest or weed control at 200 ppm (Phakopsora Pachyrhizi) | inhibition of growth at 20 ppm [3]

CCN(Cc1ccc(-c2noc(C(F)(F)F)n2)cc1)C(=O)CCCOC [Compound 1.507, N-ethyl-4-methoxy-N-[[4-[5-(trifluoromethyl)-1,2,4-oxadiazol-3-yl]phenyl]methyl]-butanamide]
≥ 80%: pest or weed control at 200 ppm [1] | pest or weed control at 200 ppm [2] | pest or weed control at 200 ppm (Phakopsora Pachyrhizi) | inhibition of growth at 20 ppm [3]

CCCC(=O)N(CC)Cc1ccc(-c2noc(C(F)(F)F)n2)cc1 [Compound 1.505, N-ethyl-N-[[4-[5-(trifluoromethyl)-1,2,4-oxadiazol-3-yl]phenyl]methyl]-butanamide]
≥ 80%: pest or weed control at 200 ppm [1] | pest or weed control at 200 ppm [2] | pest or weed control at 200 ppm (Phakopsora Pachyrhizi) | inhibition of growth at 20 ppm [3]

COCC(=O)N(CCO)Cc1ccc(-c2noc(C(F)(F)F)n2)cc1 [Compound 1.610, N-(2-hydroxyethyl)-2-methoxy-N-[[4-[5-(trifluoromethyl)-1,2,4-oxadiazol-3-yl]phenyl]methyl]-acetamide]
≥ 80%: pest or weed control at 200 ppm [1] | pest or weed control at 200 ppm [2] | pest or weed control at 200 ppm (Phakopsora Pachyrhizi) | inhibition of growth at 20 ppm [3]

C#CCCC(=O)N(CC#C)Cc1ccc(-c2noc(C(F)(F)F)n2)cc1 [Compound 1.154, N-prop-2-ynyl-N-[[4-[5-(trifluoromethyl)-1,2.4-oxadiazol-3-yl]phenyl]methyl]-pent-4-ynamide]
≥ 80%: pest or weed control at 200 ppm [1] | pest or weed control at 200 ppm [2] | pest or weed control at 200 ppm (Phakopsora Pachyrhizi) | inhibition of growth at 20 ppm [3]

CCN(Cc1ccc(-c2noc(C(F)(F)F)n2)cc1)C(=O)C1(C)COC1 [Compound 1.508, N-ethyl-3-methyl-N-[[4-[5-(trifluoromethyl)-1,2,4-oxadiazol-3-yl]phenyl]methyl]-oxetane-3-carboxamide]
≥ 80%: pest or weed control at 200 ppm [1] | pest or weed control at 200 ppm [2] | pest or weed control at 200 ppm (Phakopsora Pachyrhizi) | inhibition of growth at 20 ppm [3]

CCCN(Cc1ccc(-c2noc(C(F)(F)F)n2)cc1)C(=O)CCOC [Compound 1.655, 3-methoxy-N-propyl-N-[[4-[5-(trifluoromethyl)-1,2,4-oxadiazol-3-yl]phenyl]methyl]-propanamide]
≥ 80%: pest or weed control at 200 ppm [1] | pest or weed control at 200 ppm [2] | pest or weed control at 200 ppm (Phakopsora Pachyrhizi) | inhibition of growth at 20 ppm [3]

CCC(=O)N(C)Cc1ccc(-c2noc(C(F)(F)F)n2)cc1 [Compound 1.517, N-methyl-N-[[4-[5-(trifluoromethyl)-1,2,4-oxadiazol-3-yl]phenyl]methyl]-propanamide]
≥ 80%: pest or weed control at 200 ppm [1] | pest or weed control at 200 ppm [2] | pest or weed control at 200 ppm (Phakopsora Pachyrhizi) | inhibition of growth at 20 ppm [3]
